Test results as given in US12257184B2, “Ocular device and drug delivery system, with case” (priority 2019, dated 2025).

Experiment: Ex vivo release of therapeutic agent from insert into phosphate buffer, UV scanning spectrophotometer
Assay type: physicochemical
Conditions: drug 20%, phosphate buffer pH 7, 37° C.
Description: Ocular Daily Wear is defined by FDA Class II CFR 866.5925 products currently indicated for ocular use and sclera tissue contact.
To begin testing, a UV scanning spectrophotometer concentration calibration curve for the therapeutic agent was established. The insert was prepared to the specification in the particular Table, and the time duration sample plan for measurement was determined. The insert was weighed to establish T=0. The insert was immersed in phosphate buffer of a fixed constant volume. A mean body temperature of 37° C. (e.g., from about 36.5° C. to about 37.5° C.) was simulated for the identified time interval. The insert was transferred and immersed at the end of each time period into a new phosphate buffer test container. The simulated mean 37° C.-body temperature was continued to next time interval. The UV scanning spectrophotometer data was generated for each time interval sample. The release rate was calculated versus time for the therapeutic agent, and graphical plots of the data were generated.

[1] = Table 8, Rod, 2 Component: EVA (40% vinyl acetate) 80%, no PEO
[2] = Table 8, In Device, 3 Component: EVA (40% vinyl acetate) 40%, PEO 40%
[3] = Table 9, In Device, 3 Component: EVA (40% vinyl acetate) 40%, PEO 40%

| 1 Day % Release [1] [%] | 1 Day % Release [2] [%] | 2 Day % Release [2] [%] | 1 Day % Release (Table 8, In Device, 3 Component: EVA (40% vinyl acetate) 40%, PEO 40%, listed as dexamethasone phosphate) [%] | 1 Day % Release [3] [%] | 2 Day % Release [3] [%] | Compound |
| --- | --- | --- | --- | --- | --- | --- |
| 1.89 | – | – | – | – | – | CC(=O)OCC(=O)[C@@]1(O)[C@H](C)C[C@H]2[C@@H]3CCC4=CC(=O)C=C[C@]4(C)[C@@]3(F)[C@@H](O)C[C@@]21C [Dexamethasone 21 Acetate] |
| 3.39 | 82.7 | 85.3 | 82.7 | – | – | C[C@@H]1C[C@H]2[C@@H]3CCC4=CC(=O)C=C[C@]4(C)[C@@]3(F)[C@@H](O)C[C@]2(C)[C@@]1(O)C(=O)COP(=O)(O)O [Dexamethasone Phosphate] |
| – | – | – | – | 35 | 43 | CN(C)CC/C=C1/c2ccccc2COc2ccc(CC(=O)O)cc21 [Olopatadine FB, Olopatadine] |
